In ChEMBL document CHEMBL1687836, “Oral hexadecyloxypropyl-cidofovir therapy in pregnant guinea pigs improves outcome in the congenital model of cytomegalovirus infection” (Antimicrob Agents Chemother, 2011) one finds Activity data, which are given here for 1 compound.

SMILES strings stand for the structures. Calls of active or inactive are those of the source. The calls are words filed in the database; no cut-off is given here.

The subject of data set [1] is Cavia porcellus. The data set can be described thus: Toxicity in Guinea pig cytomegalovirus strain 22122 infected second and third trimesters of pregnant Hartley guinea pig assessed as dam liver toxicity at 4 mg/kg, po treatment started at 24 hrs post infection for 9 consecutive days. Format: organism-based. More on the design: dose 4 mg/kg, route oral. To be noted: in vivo.

Data set [2] has as its system Cavia porcellus. The data set can be described thus: Toxicity in Guinea pig cytomegalovirus strain 22122 infected second and third trimesters of pregnant Hartley guinea pig assessed as dam kidney toxicity at 4 mg/kg, po treatment started at 24 hrs post infection for 9 consecutive days. More on the design: dose 4 mg/kg, route oral. Format: organism-based. To be noted: in vivo.

The test system of data set [3] is Cavia porcellus. The data set can be described thus: Toxicity in Guinea pig cytomegalovirus strain 22122 infected second and third trimesters of pregnant Hartley guinea pig assessed as pup liver toxicity at 4 mg/kg, po treatment started at 24 hrs post infection for 9 consecutive days. The format is organism-based. More on the design: dose 4 mg/kg, route oral. Conditions: in vivo.

In data set [4] the test system is Cavia porcellus. The data set can be described thus: Toxicity in Guinea pig cytomegalovirus strain 22122 infected second and third trimesters of pregnant Hartley guinea pig assessed as pup kidney toxicity at 4 mg/kg, po treatment started at 24 hrs post infection for 9 consecutive days. Format: organism-based. Also on record: dose 4 mg/kg, route oral. To be noted: in vivo.

The subject of data set [5] is Caviid betaherpesvirus 2. The data set is described as follows: Antiviral activity against Guinea pig cytomegalovirus strain 22122 infected in second and third trimesters of pregnant Hartley guinea pig assessed as reduction in dam viremia at 4 mg/kg, po qd for 5 days. The format is functional, organism-based. More on the design: dose 4 mg/kg. To be noted: Guinea pig cytomegalovirus (strain 22122 / ATCC VR682) (GPCMV).

The subject of data set [6] is Caviid betaherpesvirus 2. The data set is described as follows: Antiviral activity against Guinea pig cytomegalovirus strain 22122 infected in second and third trimesters of pregnant Hartley guinea pig assessed as dam liver with detectable viral DNA at 4 mg/kg, po qd for 5 days measured 10 days post infection by real-time PCR (reference value: 100%). Format: functional.

In data set [7] the test system is Caviid betaherpesvirus 2. The data set is described as follows: Antiviral activity against Guinea pig cytomegalovirus strain 22122 infected in second and third trimesters of pregnant Hartley guinea pig assessed as dam liver with detectable viral DNA at 4 mg/kg, po qd for 9 days measured 10 days post infection by real-time PCR (reference value: 100%). The format is functional.

For data set [8], the system named is Caviid betaherpesvirus 2. The data set can be described thus: Antiviral activity against Guinea pig cytomegalovirus strain 22122 infected in second and third trimesters of pregnant Hartley guinea pig assessed as fetus liver with detectable viral DNA at 4 mg/kg, po qd for 5 days measured 10 days post infection by real-time PCR (reference value: 87%). Format: functional.

For data set [9], the system named is Caviid betaherpesvirus 2. The data set is described as follows: Antiviral activity against Guinea pig cytomegalovirus strain 22122 infected in second and third trimesters of pregnant Hartley guinea pig assessed as fetus liver with detectable viral DNA at 4 mg/kg, po qd for 9 days measured 10 days post infection by real-time PCR (reference value: 87%). Format: functional.

Data set [10] relates to Caviid betaherpesvirus 2. The data set can be described thus: Antiviral activity against Guinea pig cytomegalovirus strain 22122 infected in second and third trimesters of pregnant Hartley guinea pig assessed as dam spleen with detectable viral DNA at 4 mg/kg, po qd for 5 days measured 10 days post infection by real-time PCR (reference value: 100%). Format: functional.
Data set [11] concerns Caviid betaherpesvirus 2. The data set is described as follows: Antiviral activity against Guinea pig cytomegalovirus strain 22122 infected in second and third trimesters of pregnant Hartley guinea pig assessed as dam spleen with detectable viral DNA at 4 mg/kg, po qd for 9 days measured 10 days post infection by real-time PCR (reference value: 100%). Format: functional.
Data set [12] relates to Caviid betaherpesvirus 2. The data set is described as follows: Antiviral activity against Guinea pig cytomegalovirus strain 22122 infected in second and third trimesters of pregnant Hartley guinea pig assessed as fetus spleen with detectable viral DNA at 4 mg/kg, po qd for 5 days measured 10 days post infection by real-time PCR (reference value: 47%). Format: functional.

For data set [13], the system named is Caviid betaherpesvirus 2. The data set can be described thus: Antiviral activity against Guinea pig cytomegalovirus strain 22122 infected in second and third trimesters of pregnant Hartley guinea pig assessed as fetus spleen with detectable viral DNA at 4 mg/kg, po qd for 9 days measured 10 days post infection by real-time PCR (reference value: 47%). Format: functional.

The subject of data set [14] is Caviid betaherpesvirus 2. The data set can be described thus: Antiviral activity against Guinea pig cytomegalovirus strain 22122 infected in second and third trimesters of pregnant Hartley guinea pig assessed as dam placenta with detectable viral DNA at 4 mg/kg, po qd for 5 days measured 10 days post infection by real-time PCR (reference value: 100%). Format: functional.

Data set [15] has as its system Caviid betaherpesvirus 2. The data set can be described thus: Antiviral activity against Guinea pig cytomegalovirus strain 22122 infected in second and third trimesters of pregnant Hartley guinea pig assessed as dam placenta with detectable viral DNA at 4 mg/kg, po qd for 9 days measured 10 days post infection by real-time PCR (reference value: 100%). Format: functional.

Data set [16] concerns Caviid betaherpesvirus 2. The data set is described as follows: Antiviral activity against Guinea pig cytomegalovirus strain 22122 infected in second and third trimesters of pregnant Hartley guinea pig assessed as dam liver viral log10 genome copies/ug of DNA at 4 mg/kg, po qd for 5 days measured 10 days post infection by real-time PCR (reference value: 4.82 +/- 0.8 log10 genome copies/ug of DNA). The format is functional.

Data set [17] has as its system Caviid betaherpesvirus 2. The data set is described as follows: Antiviral activity against Guinea pig cytomegalovirus strain 22122 infected in second and third trimesters of pregnant Hartley guinea pig assessed as dam liver viral log10 genome copies/ug of DNA at 4 mg/kg, po qd for 9 days measured 10 days post infection by real-time PCR (reference value: 4.82 +/- 0.8 log10 genome copies/ug of DNA). The format is functional.

Data set [18] deals with Caviid betaherpesvirus 2. The data set can be described thus: Antiviral activity against Guinea pig cytomegalovirus strain 22122 infected in second and third trimesters of pregnant Hartley guinea pig assessed as fetus liver viral log10 genome copies/ug of DNA at 4 mg/kg, po qd for 5 days measured 10 days post infection by real-time PCR (reference value: 2.20 +/- 0.6 log10 genome copies/ug of DNA). The format is functional.

For data set [19], the system named is Caviid betaherpesvirus 2. The data set is described as follows: Antiviral activity against Guinea pig cytomegalovirus strain 22122 infected in second and third trimesters of pregnant Hartley guinea pig assessed as fetus liver viral log10 genome copies/ug of DNA at 4 mg/kg, po qd for 9 days measured 10 days post infection by real-time PCR (reference value: 2.20 +/- 0.6 log10 genome copies/ug of DNA). The format is functional.

Data set [20] has as its system Caviid betaherpesvirus 2. The data set can be described thus: Antiviral activity against Guinea pig cytomegalovirus strain 22122 infected in second and third trimesters of pregnant Hartley guinea pig assessed as dam spleen viral log10 genome copies/ug of DNA at 4 mg/kg, po qd for 5 days measured 10 days post infection by real-time PCR (reference value: 4.12 +/- 0.3 log10 genome copies/ug of DNA). The format is functional.

Data set [21] relates to Caviid betaherpesvirus 2. The data set can be described thus: Antiviral activity against Guinea pig cytomegalovirus strain 22122 infected in second and third trimesters of pregnant Hartley guinea pig assessed as dam spleen viral log10 genome copies/ug of DNA at 4 mg/kg, po qd for 9 days measured 10 days post infection by real-time PCR (reference value: 4.12 +/- 0.3 log10 genome copies/ug of DNA). The format is functional.

In data set [22] the test system is Caviid betaherpesvirus 2. The data set can be described thus: Antiviral activity against Guinea pig cytomegalovirus strain 22122 infected in second and third trimesters of pregnant Hartley guinea pig assessed as fetus spleen viral log10 genome copies/ug of DNA at 4 mg/kg, po qd for 5 days measured 10 days post infection by real-time PCR (reference value: 1.63 +/- 0.6 log10 genome copies/ug of DNA). Format: functional.

In data set [23] the test system is Caviid betaherpesvirus 2. The data set is described as follows: Antiviral activity against Guinea pig cytomegalovirus strain 22122 infected in second and third trimesters of pregnant Hartley guinea pig assessed as fetus spleen viral log10 genome copies/ug of DNA at 4 mg/kg, po qd for 9 days measured 10 days post infection by real-time PCR (reference value: 1.63 +/- 0.6 log10 genome copies/ug of DNA). The format is functional.

`CCCCCCCCCCCCCCCCOCCCOP(=O)(O)CO[C@H](CO)Cn1ccc(N)nc1=O` [BRINCIDOFOVIR]: the Activity result in the data set with Cavia porcellus [1] is listed as “Non-toxic”; in the data set with Cavia porcellus [2], “Non-toxic”; with Cavia porcellus [3] it was “Non-toxic”; in the data set with Cavia porcellus [4], “Non-toxic”; with Caviid betaherpesvirus 2 [6], 100%; in the data set with Caviid betaherpesvirus 2 [7], 100%. The Activity amounted to 92% in the data set on Caviid betaherpesvirus 2 [8]; 85% in the data set with Caviid betaherpesvirus 2 [9]; 100% in the data set on Caviid betaherpesvirus 2 [10]; 100% with Caviid betaherpesvirus 2 [11]; 77% in the data set with Caviid betaherpesvirus 2 [12]; 62% with Caviid betaherpesvirus 2 [13]. Also, the Activity worked out at 100% in the data set with Caviid betaherpesvirus 2 [14]; 100% in the data set on Caviid betaherpesvirus 2 [15]; 2.98 in the data set with Caviid betaherpesvirus 2 [16]; 3.01 in the data set on Caviid betaherpesvirus 2 [17]; 2.12 in the data set on Caviid betaherpesvirus 2 [18]; 1.87 with Caviid betaherpesvirus 2 [19]. Also, the Activity turned out to be 2.77 in the data set on Caviid betaherpesvirus 2 [20], 2.09 in the data set with Caviid betaherpesvirus 2 [21], 1.91 in the data set on Caviid betaherpesvirus 2 [22] and 1.65 in the data set with Caviid betaherpesvirus 2 [23]. Moreover, the result in the data set with Caviid betaherpesvirus 2 [5] was Active.
